Data on 3 molecules can be found in ChEMBL document CHEMBL1148048, “Two new tryptophan-derived alkaloids from the Okinawan marine sponge Aplysina sp” (J Nat Prod, 1994).

For one assay, the system named is L1210. Description: Cytotoxicity against mouse L1210 cells. The class given is functional, cell-based.
In assay [1] the test system is KB. Description: Cytotoxicity against human KB cells. The class given is functional, cell-based.
In assay [2] the test system is KB. Description: Cytotoxicity against human KB cells at 20 ug/ml. The class given is functional.

≈ marks a conversion by molar mass, not a printed value.

For `CN1C(=N)N(C)/C(=C/c2c[nH]c3ccccc23)C1=O` [APLYSINOPSIN], the IC50 was 2.3 µg/mL (≈ 9.04 µM) in the assay on L1210 and 6.4 µg/mL (≈ 25.2 µM) in the assay on KB [1].

On to `C/N=C1\NC(=O)/C(=C\c2c[nH]c3ccccc23)N1C` [ISOPLYSIN A], for which, in the assay with L1210, half-maximal inhibition (IC50) required 11.5 µg/mL (≈ 45.2 µM). For the same molecule, testing at 20 µg/mL with KB [2] gave an inhibition of 31%.

Take `C/N=C1\N(C)C(=O)/C(=C\c2c[nH]c3ccccc23)N1C` [METHYLAPLYSINOPSIN]: the IC50 in the assay on L1210 worked out at 3.5 µg/mL (≈ 13 µM); in the assay with KB [1], 6.7 µg/mL (≈ 25 µM).

One may read the IC50 as the concentration that gives 50% inhibition. Read a high IC50 as a need for much substance. Usually inhibition stands for how much of the control response was suppressed.
